In publication PMC8079033, “Design, synthesis, anticancer evaluation, and molecular modelling studies of novel tolmetin derivatives as potential VEGFR-2 inhibitors and apoptosis inducers” (Journal of Enzyme Inhibition and Medicinal Chemistry, 2021):

Assays:
[1] = system: SF-268; assay: NCI 60-cell line one-dose antiproliferative screen (SRB); type: cell-based; conditions: Homo sapiens, read-out: growth inhibition % (GI%)
Description: (§1) Anticancer activity screening of the newly synthesised compounds was measured in vitro utilising 60 different human tumour cell lines provided by US National Cancer Institute according to previously reported standard procedure[41–43] as follows: Cells are inoculated into 96-well microtiter plates in 100 ml. After cell inoculation, the microtiter plates are incubated at 37 °C, 5% CO2, 95% air, and 100% relative humidity for 24 h prior to addition of experimental compounds. After 24 h, two plates of each cell line are fixed in situ with TCA, to represent a measurement of the cell population for each cell line at the time of compound addition (Tz). Experimental compounds are solubilised in dimethyl sulfoxide at 400-fold the desired final maximum test concentration and stored frozen prior to use. At the time of compound addition, an aliquot of frozen concentrate is thawed and diluted to twice the desired final maximum test concentration with a complete medium containing […] gentamicin. Aliquots of […] of the compounds dilutions are added to the appropriate microtiter wells already containing 100 ml of medium, resulting in the required final compound concentration. Following compound addition, the plates are incubated for an additional 48 h at 37 °C, 5% CO2, 95% air, and 100% relative humidity. For adherent cells, the assay is terminated by the addition of cold trichloroacetic acid (TCA). Cells are fixed in situ by the gentle addition of 50 ml of cold 50% (w/v) TCA (final concentration, 10% TCA) and incubated for […] at 4 °C. The supernatant is discarded, and the plates are washed five times with tap water and air-dried. Sulforhodamine B (SRB) solution (100 ml) at 0.4% (w/v) in 1% acetic acid is added to each well, and plates are incubated for 10 min at room temperature. After staining, the unbound dye is removed by washing five times with 1% acetic acid and the plates are air-dried. The bound stain is subsequently solubilised with a 10 mM trizma base, and the absorbance is read on an automated plate reader at a wavelength of 515 nm. For suspension cells, the methodology is the same except that the assay is terminated by fixing settled cells at the bottom of the wells by gently adding 50 ml of 80% TCA (final concentration, 16% TCA). Using the absorbance measurements [time zero, (Tz), control growth, (C), and test growth in the presence of compound (Ti)], the percentage growth is calculated for each compound. The One-dose data are reported as a mean graph of the percent growth of treated cells. The reported number is growth relative to the no-compound control, and relative to the time zero number of cells. This allows the detection of both growth inhibition and lethality.
(§2) Fifteen newly synthesised compounds were tested for their in vitro antiproliferative activity by the National Cancer Institute (NCI), Maryland, USA[50], under the Developmental Therapeutic Program (DTP)[41]^,[43]^,[51]^,[52]. The tested compounds were evaluated at a concentration of 10 µM on a panel of 60 tumour cell lines representing leukaemia and non-small cell lung, colon, CNS, melanoma, ovarian, renal, prostate, and breast cancers. The antiproliferative activity was presented by the NCI as percent growth of the treated cells and is presented in Table 1 as growth inhibition percentage (GI%) achieved by the tested compounds.

[2] = system: SF-539; assay: as above; type: cell-based; conditions: Homo sapiens, read-out: growth inhibition % (GI%)
Description: as §1, §2

[3] = system: ACHN; assay: as above; type: cell-based; conditions: Homo sapiens, read-out: growth inhibition % (GI%)
Description: as §1, §2

[4] = system: SNB-75; assay: as above; type: cell-based; conditions: Homo sapiens, read-out: growth inhibition % (GI%)
Description: as §1, §2

[5] = system: HOP-92; assay: as above; type: cell-based; conditions: Homo sapiens, read-out: growth inhibition % (GI%)
Description: as §1, §2

[6] = system: PC-3; assay: as above; type: cell-based; conditions: Homo sapiens, read-out: growth inhibition % (GI%)
Description: as §1, §2

[7] = system: MDA-MB-231/ATCC; assay: as above; type: cell-based; conditions: Homo sapiens, read-out: growth inhibition % (GI%)
Description: as §1, §2

[8] = system: IGROV1; assay: as above; type: cell-based; conditions: Homo sapiens, IGROV-1, read-out: growth inhibition % (GI%)
Description: as §1, §2

[9] = system: SN 12 C; assay: as above; type: cell-based; conditions: Homo sapiens, SN12C, read-out: growth inhibition % (GI%)
Description: as §1, §2

[10] = system: OVCAR-8; assay: as above; type: cell-based; conditions: Homo sapiens, read-out: growth inhibition % (GI%)
Description: as §1, §2

[11] = system: U251; assay: as above; type: cell-based; conditions: Homo sapiens, U-251, read-out: growth inhibition % (GI%)
Description: as §1, §2

[12] = system: SK-MEL-5; assay: as above; type: cell-based; conditions: Homo sapiens, read-out: growth inhibition % (GI%)
Description: as §1, §2

[13] = system: MDA-MB-468; assay: as above; type: cell-based; conditions: Homo sapiens, read-out: growth inhibition % (GI%)
Description: as §1, §2

[14] = system: SF-295; assay: as above; type: cell-based; conditions: Homo sapiens, read-out: growth inhibition % (GI%)
Description: as §1, §2

[15] = system: UACC-62; assay: as above; type: cell-based; conditions: Homo sapiens, read-out: growth inhibition % (GI%)
Description: as §1, §2

[16] = system: HOP-62; assay: as above; type: cell-based; conditions: Homo sapiens, read-out: growth inhibition % (GI%)
Description: as §1, §2

[17] = system: SW-620; assay: as above; type: cell-based; conditions: Homo sapiens, read-out: growth inhibition % (GI%)
Description: as §1, §2

[18] = system: UO-31; assay: as above; type: cell-based; conditions: Homo sapiens, read-out: growth inhibition % (GI%)
Description: as §1, §2

[19] = system: MCF7; assay: as above; type: cell-based; conditions: Homo sapiens, read-out: growth inhibition % (GI%)
Description: as §1, §2

[20] = system: NCI-H522; assay: as above; type: cell-based; conditions: Homo sapiens, read-out: growth inhibition % (GI%)
Description: as §1, §2

[21] = system: MDA-MB-435; assay: as above; type: cell-based; conditions: Homo sapiens, read-out: growth inhibition % (GI%)
Description: as §1, §2

[22] = system: NCI-H23; assay: as above; type: cell-based; conditions: Homo sapiens, read-out: growth inhibition % (GI%)
Description: as §1, §2

[23] = system: CAKI-1; assay: as above; type: cell-based; conditions: Homo sapiens, read-out: growth inhibition % (GI%)
Description: as §1, §2

[24] = system: UACC-257; assay: as above; type: cell-based; conditions: Homo sapiens, read-out: growth inhibition % (GI%)
Description: as §1, §2

[25] = system: LOX IMVI; assay: as above; type: cell-based; conditions: Homo sapiens, read-out: growth inhibition % (GI%)
Description: as §1, §2

[26] = system: OVCAR-5; assay: as above; type: cell-based; conditions: Homo sapiens, read-out: growth inhibition % (GI%)
Description: as §1, §2

[27] = system: HCT-15; assay: as above; type: cell-based; conditions: Homo sapiens, read-out: growth inhibition % (GI%)
Description: as §1, §2

[28] = system: HCC-2998; assay: as above; type: cell-based; conditions: Homo sapiens, read-out: growth inhibition % (GI%)
Description: as §1, §2

[29] = system: NCI-H226; assay: as above; type: cell-based; conditions: Homo sapiens, read-out: growth inhibition % (GI%)
Description: as §1, §2

[30] = system: EKVX; assay: as above; type: cell-based; conditions: Homo sapiens, read-out: growth inhibition % (GI%)
Description: as §1, §2

- melting point: 193 to 195 °C
Structure (SMILES): Cc1ccc(C(=O)c2ccc(CC(=O)NN=C3C(=O)Nc4ccccc43)n2C)cc1 [Compound 6a, 2–(1-Methyl-5–(4-methylbenzoyl)-1H-pyrrol-2-yl)-N′-(2-oxoindolin-3-ylidene) acetohydrazide]
- inhibition at 10 µM [1]: < 10%
- inhibition at 10 µM [2]: < 10%
- inhibition at 10 µM [3]: < 10%
- inhibition at 10 µM [4]: 29.6%
- inhibition at 10 µM [5]: 11.1%
- inhibition at 10 µM [6]: < 10%
- inhibition at 10 µM [7]: 11.4%
- inhibition at 10 µM [8]: < 10%
- inhibition at 10 µM [9]: < 10%
- inhibition at 10 µM [10]: < 10%
- inhibition at 10 µM [11]: < 10%
- inhibition at 10 µM [12]: < 10%
- inhibition at 10 µM [13]: 10.5%
- inhibition at 10 µM [14]: < 10%
- inhibition at 10 µM [15]: < 10%
- inhibition at 10 µM [16]: < 10%
- inhibition at 10 µM [17]: < 10%
- inhibition at 10 µM [18]: 25.7%
- inhibition at 10 µM [19]: < 10%
- inhibition at 10 µM [20]: < 10%
- inhibition at 10 µM [21]: < 10%
- inhibition at 10 µM [22]: < 10%
- inhibition at 10 µM [23]: 12.3%
- inhibition at 10 µM [24]: < 10%
- inhibition at 10 µM [25]: < 10%
- inhibition at 10 µM [26]: < 10%
- inhibition at 10 µM [27]: < 10%
- inhibition at 10 µM [28]: < 10%
- inhibition at 10 µM [29]: < 10%
- inhibition at 10 µM [30]: < 10%
